Measured values: paper PMC11345829, “Discovery of Potent Isoquinolinequinone N-Oxides to Overcome Cancer Multidrug Resistance” (Journal of Medicinal Chemistry, 2024)

Tests used:
Format in all cases: cell-based, human
NCI-H460 cells [1] = assay: Annexin V-FITC/PI cell death assay; conditions: 48 h; 0.35 and 0.7 μM
Procedure: The effect of compound 25 on the levels of apoptosis and necrosis was evaluated using annexin V-FITC/PI labeling followed by flow cytometry analysis.
Figure 9 Effect of compound 25 on the levels of death of NCI-H460 cells, analyzed by flow cytometry (annexin V−PI assay). […] Results are the mean ± SEM from at least 3 independent experiments. * p ≤ 0.05, when comparing DMSO vs compound treatment.
Analysis of cell death was performed using the Annexin V-FITC apoptosis detection kit (eBioscience, Thermo Fisher Scientific). […] Exposure to 5% ethanol for 1 h was used as a positive control for necrosis. Collected cells were resuspended in the binding buffer solution and incubated with the Annexin V-FITC conjugate for 10 min at RT, in the dark. Afterward, PI was added, and samples were analyzed using the BD Accuri C6 flow cytometer, where at least 10 000 events per sample were plotted. Data analysis was carried out using the BD Accuri C6 Software.

NCI-H460 cells [2] = assay: Western blot protein expression analysis
Procedure: Western blot analysis was performed to evaluate the expression of known proteins associated with cell proliferation, cell cycle, apoptosis, and DNA damage (Figure 10).
Figure 10 Effect of compound 25 on the NCI-H460 cellular expression of proteins involved in proliferation, cell death and DNA damage, analyzed by Western Blotting. […] (B) Graphical representation of the expression of proteins analyzed. β-actin was used as loading control. Results are the mean ± SEM from 3 independent experiments. * p ≤ 0.05, ** p ≤ 0.01 when comparing DMSO vs compound treatment.
After this treatment, cells were centrifuged at 1200 rpm for 5 min at 4 °C, and then lysed in Wynman’s buffer, as previously described,[79] containing EDTA-free protease (Roche, Basel, Switzerland) and phosphatase inhibitors (Merck Life Science) for 30 min with agitation and at 4 °C. Protein lysates were obtained after centrifugation at 13 000 rpm, for 10 min at 4 °C, and stored at −20 °C until used. A modified Lowry protocol, DC Protein assay kit (Bio-Rad, Hercules, California, USA), was used to quantify the total protein content (using a BSA standard calibration curve). The absorbance was analyzed with the Gen5 software on the microplate reader Synergy Mx, […].
Then 20 μg of protein per treatment condition was loaded and separated in 12% SDS-PAGE gels and electrophoretically transferred into nitrocellulose membranes (GE Healthcare Life Science, Chalfont St Giles, UK) for 2 h using a Mini Trans-Blot Cell system (Bio-Rad). The membranes were then stained with Ponceau S solution (PanReac AppliChem, Barcelona, Spain) to confirm that proper protein transfer occurred. Then, the membranes were blocked in Tris-buffered saline solution (TBS) pH 7.4 containing 5% (w/v) nonfat dry milk (Molico, Nestlé, Vevey, Switzerland) or 5% (w/v) BSA for 2 h at RT. The membranes were incubated for 90 min at RT with the following primary antibodies: caspase-3 (1:200; sc-56053), cyclin D1 (1:200; sc-8396), cyclin E (1:100; sc-377100), p21 (1:200; sc-6246), p53 (1:200; sc-126), PARP-1 (1:200; sc-8007), p-Histone H2A.X (1:200; sc-517348), TP53BP1 (1:100; sc-515841), and β-actin (1:200; sc-13118) from Santa Cruz Biotechnology, Dallas, Texas, USA. Following washing steps in TBS-T, the membranes were incubated with their respective secondary antibodies, antimouse IgG horseradish peroxidase (HRP) (Cytiva, Marlborough, Massachusetts, USA) or antirabbit IgG-HRP (Cytiva) for 1 h at RT in an orbital shaker. […] The signal was detected with a Fuji Medical Film Processor (FPM-100A model), and the immunoblots were digitalized using the GS-800 calibrated densitometer (Bio-Rad). Band quantification was carried out with Software Image Lab version 6.0.1 (Bio-Rad), and the molecular weight of protein bands were estimated by comparison with the bands from a protein marker (PageRuler Plus Prestained Protein Ladder, 10−250 kDa, Thermo Fisher Scientific).

NCI-H460/R spheroids = assay: Cell Titer-Glo 3D spheroid viability assay; conditions: 48 h; 25 at 0.35 and 0.7 μM; etoposide 2 μM
Procedure: Results are presented as the % of luciferase luminescence relative to the “blank” cells (medium).
Spheroid formation was conducted in 12-series agarose 3D Petri Dish micromolds (MicroTissues Technology, MicroTissues Inc., Sigma-Aldrich). The agarose micromolds were prepared using 1% agarose in a 0.9% NaCl solution and then placed in 12-well plates and equilibrated with RPMI supplemented with 10% FBS for at least 2 h before cell seeding. Cell suspensions corresponding to 500 cells per spheroid of the NSCLC cell lines (NCI-H460 and NCI-H460/R), and 1000 cells per spheroid of the colorectal cancer cell lines (DLD1 and DLD1-TxR) were seeded in the corresponding micromolds. […] Spheroid formation was monitored with the Leica DMi1 microscope. […] At the end of the treatment, images from at least 8 different spheroids per condition were captured on the Leica Dmi1 microscope, and posteriorly analyzed with the automated open-source software AnaSP.[82] Spheroid parameters, such as equivalent diameter, circularity, and compactness, were calculated.
Spheroid viability was determined through the luminescence-based Cell Titer-Glo 3D cell viability assay (Promega). […] The plate was then incubated in the dark for 5 min with agitation and allowed to rest for 25 min before luminescence measurement. Luminescence was quantified using the microplate reader Synergy MX coupled with the GEN5 software. […]

[3] = tested on: NCI-H460, NCI-H460/R, DLD1 and DLD1-TxR spheroids; assay: Spheroid morphology (AnaSP image analysis); conditions: 48 h; GI50 and 2 × GI50
Procedure: Spheroid formation was conducted in 12-series agarose 3D Petri Dish micromolds (MicroTissues Technology, MicroTissues Inc., Sigma-Aldrich). The agarose micromolds were prepared using 1% agarose in a 0.9% NaCl solution and then placed in 12-well plates and equilibrated with RPMI supplemented with 10% FBS for at least 2 h before cell seeding. Cell suspensions corresponding to 500 cells per spheroid of the NSCLC cell lines (NCI-H460 and NCI-H460/R), and 1000 cells per spheroid of the colorectal cancer cell lines (DLD1 and DLD1-TxR) were seeded in the corresponding micromolds. The choice of cell seeding concentration was based on a previous optimization assay (data not shown), ensuring that at the end of the assay the spheroids would have a size of around 400 μm. A 20 min incubation period was used for cells to settle into the micromolds and additional medium was finally added to the wells. Spheroid formation was monitored with the Leica DMi1 microscope. […] At the end of the treatment, images from at least 8 different spheroids per condition were captured on the Leica Dmi1 microscope, and posteriorly analyzed with the automated open-source software AnaSP.[82] Spheroid parameters, such as equivalent diameter, circularity, and compactness, were calculated.
S3.6 Effect of 25 on spheroids from NSCLC and colorectal cancer (Figure S67) […]
2GI50 concentrations previously determined in a 2D setting. […]

## COC(=O)c1c2c(c[n+]([O-])c1C)C(=O)C=C(NCc1ccccc1)C2=O [Compound 25]
NCI-H460 cells [1]
  percentage of dead cells (apoptosis/necrosis): did not cause an increase in the percentage of dead cells
NCI-H460 cells [2]; 48 h
  cyclin D1 expression: increased the expression of cyclin D1 (although not statistically significantly)
  p53 expression: slightly increased the expression of p53, although not statistically significant
NCI-H460 cells [2]; 48 h, 0.35 and 0.7 μM
  PARP-1 expression: does not alter the expression levels of PARP-1
NCI-H460 cells [2]; 48 h, 2 × GI50
  p21 expression: clearly increased the expression of p21
NCI-H460 cells [2]; 48 h, both 0.35 and 0.7 μM
  procaspase-3 expression: significant decrease in procaspase-3
NCI-H460 cells [2]; higher concentration tested, not statistically significant
  TP53BP1 and p-histone H2A.X expression: increased the expression levels of TP53BP1 and of the p-histone H2A.X
NCI-H460 cells [2]; preliminary, data not shown
  p62, LC3-I and LC3-II expression: did not alter the expression levels of p62, LC3-I. and LC3-II
NCI-H460/R spheroids
  viability of NCI-H460/R spheroids: significant decrease in the viability of the spheroids
[3]
  spheroid morphological properties (diameter, compactness, circularity): did not display statistical differences in the AnaSP-calculated morphological properties
